The test deals with GCN2 (Homo sapiens, UniProt Q9P2K8). Briefly: GCN2 enzymatic endpoint assay: phosphorylation of GFP-eIF2α measured by TR-FRET (Lanthascreen). Format: biochemical. As to conditions: tested as described in Example 77; compound and/or hydrochloride, dihydrochloride or trifluoroacetic acid salt; read-out: IC 50 Activity. In a few lines:
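2 μM ATP, 80 nM GFP-eIF2α, RT, 90 min; EDTA stop. Tb-anti-phospho antibody TR-FRET read, 520/495 nm ratio.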
(In general: TR-FRET usually uses a lanthanide donor and a delayed reading to cut background.)

The structures appear in SMILES notation.

Sequence of GCN2 (Q9P2K8 whole entry): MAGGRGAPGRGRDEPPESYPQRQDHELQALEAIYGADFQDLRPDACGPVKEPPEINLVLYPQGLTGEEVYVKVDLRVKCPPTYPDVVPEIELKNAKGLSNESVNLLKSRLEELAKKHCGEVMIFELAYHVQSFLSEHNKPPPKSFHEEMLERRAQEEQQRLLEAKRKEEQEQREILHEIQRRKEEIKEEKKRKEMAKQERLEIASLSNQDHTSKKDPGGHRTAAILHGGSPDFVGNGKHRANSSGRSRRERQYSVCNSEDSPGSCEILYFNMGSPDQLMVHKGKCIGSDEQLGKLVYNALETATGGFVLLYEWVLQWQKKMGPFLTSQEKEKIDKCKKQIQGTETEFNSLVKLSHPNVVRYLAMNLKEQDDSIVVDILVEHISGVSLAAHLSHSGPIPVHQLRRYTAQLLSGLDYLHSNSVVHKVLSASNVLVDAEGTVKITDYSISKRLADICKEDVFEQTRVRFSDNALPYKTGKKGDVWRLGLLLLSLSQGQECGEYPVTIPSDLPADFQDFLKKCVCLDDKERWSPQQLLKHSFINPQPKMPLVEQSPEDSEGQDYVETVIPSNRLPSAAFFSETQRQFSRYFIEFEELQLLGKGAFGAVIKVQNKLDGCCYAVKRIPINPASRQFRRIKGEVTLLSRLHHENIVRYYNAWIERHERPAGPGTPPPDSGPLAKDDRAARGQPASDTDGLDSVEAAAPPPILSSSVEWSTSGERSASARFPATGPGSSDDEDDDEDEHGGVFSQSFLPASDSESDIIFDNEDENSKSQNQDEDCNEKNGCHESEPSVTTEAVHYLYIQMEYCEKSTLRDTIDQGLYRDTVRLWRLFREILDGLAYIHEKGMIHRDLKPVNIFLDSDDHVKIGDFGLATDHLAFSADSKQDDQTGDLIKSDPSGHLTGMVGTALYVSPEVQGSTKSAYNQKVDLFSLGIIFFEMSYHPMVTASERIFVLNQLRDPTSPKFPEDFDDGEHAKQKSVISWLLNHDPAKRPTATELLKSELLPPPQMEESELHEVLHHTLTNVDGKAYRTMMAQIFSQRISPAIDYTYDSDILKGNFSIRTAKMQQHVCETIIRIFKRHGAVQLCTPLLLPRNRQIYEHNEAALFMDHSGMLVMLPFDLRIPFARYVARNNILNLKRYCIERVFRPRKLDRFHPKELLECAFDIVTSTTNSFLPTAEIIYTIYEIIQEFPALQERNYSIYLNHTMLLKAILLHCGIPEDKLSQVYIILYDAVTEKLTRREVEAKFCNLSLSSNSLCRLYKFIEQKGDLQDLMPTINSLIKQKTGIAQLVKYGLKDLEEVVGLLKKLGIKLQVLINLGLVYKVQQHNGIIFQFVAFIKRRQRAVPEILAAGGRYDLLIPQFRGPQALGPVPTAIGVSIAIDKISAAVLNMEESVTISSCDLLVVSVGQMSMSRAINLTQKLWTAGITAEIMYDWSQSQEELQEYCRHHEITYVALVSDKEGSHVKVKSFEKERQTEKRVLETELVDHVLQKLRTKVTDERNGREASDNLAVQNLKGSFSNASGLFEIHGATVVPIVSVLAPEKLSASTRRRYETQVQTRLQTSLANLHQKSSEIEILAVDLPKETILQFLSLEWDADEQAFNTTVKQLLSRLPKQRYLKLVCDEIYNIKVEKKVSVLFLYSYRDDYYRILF

As to `N#Cc1cc(-n2nc(Br)c3cnc(N[C@@H]4CC[C@@H](C(=O)N5CCNC(=O)C5)C4)nc32)cc2cccnc12` [6-(3-bromo-6-(((1R,3R)-3-(3-oxopiperazine-1-carbonyl)cyclopentyl)amino)-1H-pyrazolo [3,4-d]pyrimidin-1-yl)quinoline-8-carbonitrile], the IC50 was less than 25 nM.

`CNC(=O)[C@]1(C)CC[C@@H](Nc2ncc3c(Br)nn(-c4cc(CN5CCNCC5=O)c5ncccc5c4)c3n2)C1` [(1R,3R)-3-[[3-bromo-1-[8-[(2-oxopiperazin-1-yl)methyl]-6-quinolyl]pyrazolo[3,4-d]pyrimidin-6-yl]amino]-N,1-dimethyl-cyclopentanecarboxamide]: the IC50 was 25 to 200 nM.

On to `CNC(=O)C1(CCS(C)(=O)=O)CC[C@@H](Nc2ncc3c(Br)nn(-c4ccc(-c5nnc(C)s5)c(CCC#N)c4)c3n2)C1` (stereo partly shown), for which the IC50 is 25 to 200 nM.

With `CNC(=O)[C@]1(C)CC[C@@H](Nc2ncc3c(Br)nn(-c4cc(C#N)cc(CCC5CNC5)c4)c3n2)C1` [(1R,3R)-3-[[1-[3-[2-(azetidin-3-yl)ethyl]-5-cyano-phenyl]-3-bromo-pyrazolo[3,4-d]pyrimidin-6-yl]amino]-N,1-dimethyl-cyclopentanecarboxamide], the IC50 is 25 to 200 nM.

`N#Cc1cc(-n2nc(Br)c3cnc(N[C@@H]4CC[C@@H](C(=O)N5CCC5)C4)nc32)cc2cccnc12` [6-(6-(((1R,3R)-3-(azetidine-1-carbonyl)cyclopentyl)amino)-3-bromo-1H-pyrazolo [3,4-d]pyrimidin-1-yl)quinoline-8-carbonitrile]: the IC50 is 25 to 200 nM.

With `C[C@]1(C(=O)N2CNC(=O)C2)CC[C@@H](Nc2ncc3c(Br)nn(-c4cc(F)c5ncccc5c4)c3n2)C1` [1-[(1S,3R)-3-[[3-bromo-1-(8-fluoro-6-quinolyl)pyrazolo[3,4-d]pyrimidin-6-yl]amino]-1-methyl-cyclopentanecarbonyl] imidazolidin-4-one], the IC50 lay in the range of 25 to 200 nM.

Turning to `O=C([C@@H]1CC[C@@H](Nc2ncc3c(Br)nn(-c4ccc5ncccc5c4)c3n2)C1)N1CCC(O)(CO)CC1` [((1R,3R)-3-((3-bromo-1-(quinolin-6-yl)-1H-pyrazolo[3,4-d]pyrimidin-6-yl)amino)cyclo-pentyl)(4-hydroxy-4-(hydroxymethyl)piperidin-1-yl)methanone], the IC50 fell in the range of 25 to 200 nM.

Take `O=S(=O)([C@@H]1CC[C@@H](Nc2ncc3c(Br)nn(-c4ccc5ncccc5c4)c3n2)C1)N1CCOCC1` [3-bromo-N-((1R,3R)-3-(morpholinosulfonyl)cyclopentyl)-1-(quinolin-6-yl)-1H-pyrazolo [3,4-d]pyrimidin-6-amine]: the IC50 was 200 to 500 nM.

`CNCc1cc(OC(F)(F)F)cc(-n2nc(Br)c3cnc(N[C@@H]4CCC(C)(C(=O)NC)C4)nc32)c1` (stereo partly drawn) [(3R)-3-[[3-bromo-1-[3-(methylaminomethyl)-5-(trifluoromethoxy)phenyl]pyrazolo[3,4-d]pyrimidin-6-yl]amino]-N,1-dimethyl-cyclopentanecarboxamide]: the IC50 lay within 25 to 200 nM.

Consider `COCCNC(=O)[C@@H]1CC[C@@H](Nc2ncc3c(Br)nn(-c4ccc5nc(C)cc(Cl)c5c4)c3n2)C1` [(1R,3R)-3-((3-bromo-1-(4-chloro-2-methyl-quinolin-6-yl)-1H-pyrazolo[3,4-d]pyrimidin-6-yl)amino)-N-(2-methoxyethyl)cyclopentane-1-carboxamide], for which the IC50 lay in the range of 200 to 500 nM.

Consider `O=S(=O)(NC1CCOCC1)[C@@H]1CC[C@@H](Nc2ncc3c(Br)nn(-c4ccc5ncccc5c4)c3n2)C1` [(1R,3R)-3-((3-bromo-1-(quinolin-6-yl)-1H-pyrazolo[3,4-d]pyrimidin-6-yl)amino)-N-(tetrahydro-2H-pyran-4-yl)cyclopentane-1-sulfonamide], for which the IC50 lay within 200 to 500 nM.

With `CNC(=O)[C@]1(C)CC[C@@H](Nc2ncc3c(Br)nn(-c4cc(Cl)cc(C5CN(C)C(=O)CO5)c4)c3n2)C1` (stereo partly drawn) [(1R,3R)-3-[[3-bromo-1-[3-chloro-5-(4-methyl-5-oxo-morpholin-2-yl)phenyl]pyrazolo[3,4-d]pyrimidin-6-yl]amino]-N,1-dimethyl-cyclopentane-carboxamide], the IC50 was in the range of 25 to 200 nM.

In the case of `CNC(=O)[C@]1(C)CC[C@@H](Nc2ncc3c(Br)nn(-c4ccc5c(c4)CN(C(=O)C4CNC4)C5)c3n2)C1` [(1R,3R)-3-[[1-[2-(azetidine-3-carbonyl)isoindolin-5-yl]-3-bromo-pyrazolo[3,4-d]pyrimidin-6-yl]amino]-N,1-dimethyl-cyclopentanecarboxamide], the IC50 fell in the range of 25 to 200 nM.

In the case of `CNC(=O)[C@]1(C(F)(F)F)CC[C@@H](Nc2ncc3c(Br)nn(-c4cc(F)c5ncccc5c4)c3n2)C1` [(1S,3R)-3-[[3-bromo-1-(8-fluoro-6-quinolyl)pyrazolo[3,4-d]pyrimidin-6-yl]amino]-N-methyl-1-(trifluoromethyl)cyclopentane-carboxamide], the IC50 is 25 to 200 nM.

Take `CNC(=O)[C@]1(C)CCC(Nc2ncc3c(Br)nn(-c4ccc5nn(CCN)cc5c4)c3n2)C1` (stereo partly drawn) [(1R)-3-[[1-[2-(2-aminoethyl)indazol-5-yl]-3-bromo-pyrazolo[3,4-d]pyrimidin-6-yl]amino]-N,1-dimethyl-cyclopentane-carboxamide]: the IC50 lay in the range of 25 to 200 nM.

Consider `CNC(=O)[C@]1(C)CC[C@@H](Nc2ncc3c(I)nn(-c4ccc(-c5nnc(C)o5)cc4)c3n2)C1` [(1R,3R)-3-[[3-iodo-1-[4-(5-methyl-1,3,4-oxadiazol-2-yl)phenyl]pyrazolo[3,4-d]pyrimidin-6-yl]amino]-N,1-dimethyl-cyclopentanecarboxamide], for which the IC50 is less than 25 nM.

Take `COc1cc(-n2nc(Br)c3cnc(N[C@@H]4CC[C@@H](C(=O)NCCS(C)(=O)=O)C4)nc32)ccn1`: the IC50 fell in the range of 500 to 1000 nM.

Consider `Cc1nnc(-c2ccc(-n3nc(Br)c4cnc(N[C@@H]5CC[C@@](C)(C(=O)N6CCNCC6)C5)nc43)cc2)s1` [[(1R,3R)-3-[[3-bromo-1-[4-(5-methyl-1,3,4-thiadiazol-2-yl)phenyl]pyrazolo [3,4-d]pyrimidin-6-yl]amino]-1-methyl-cyclopentyl]-piperazin-1-yl-methanone], for which the IC50 is 25 to 200 nM.

With `CN1CCN(C(=O)[C@@H]2CC[C@@H](Nc3ncc4c(Br)nn(-c5ccc6ncccc6c5)c4n3)C2)CC1=O` [4-((1R,3R)-3-((3-bromo-1-(quinolin-6-yl)-1H-pyrazolo[3,4-d]pyrimidin-6-yl)amino)cyclo-pentane-1-carbonyl)-1-methylpiperazin-2-one], the IC50 was 25 to 200 nM.

Turning to `CNC(=O)[C@]1(C)CC[C@@H](Nc2ncc3c(Br)nn(-c4ccc(-c5nnc(C(C)(C)N)s5)c(F)c4)c3n2)C1` [(1R,3R)-3-[[1-[4-[5-(1-amino-1-methyl-ethyl)-1,3,4-thiadiazol-2-yl]-3-fluoro-phenyl]-3-bromo-pyrazolo[3,4-d]pyrimidin-6-yl]amino]-N,1-dimethyl-cyclopentanecarboxamide], the IC50 was less than 25 nM.

As to `COC(=O)N1CC[C@@H](Nc2ncc3c(Br)nn(-c4ccc(-c5nnc(C)s5)cc4)c3n2)C1`, the IC50 lay in the range of 25 to 200 nM.

Take `CNC(=O)[C@@H]1CC[C@@H](Nc2ncc3c(I)nn(-c4cc(F)c5ncccc5c4)c3n2)C1` [(1R,3R)-3-[[1-(8-fluoro-6-quinolyl)-3-iodo-pyrazolo[3,4-d]pyrimidin-6-yl]amino]-N-methyl-cyclopentanecarboxamide]: the IC50 is less than 25 nM.

The values are drawn from patent publication US11046699B2, “Pyrazolo-pyrimidin-amino-cycloalkyl compounds and their therapeutic uses” (RAPT THERAPEUTICS, INC., priority 2018, dated 2021).
